Measured values taken from patent publication US9149475B2, “Protein kinase C inhibitors and uses thereof” (Rigel Pharmaceuticals, Inc., priority 2009, dated 2015).

The compounds below were run on Human primary T cells (assay: IL-2 ELISA, human primary T cell, anti-CD3+CD28+ (whole cell assay)). Settings: Homo sapiens, T-cell, 24 h, human primary T cells stimulated with anti-CD3 + anti-CD28, 24 hours.
Format: cell-based
Method in brief: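 IL-2 secreted over 24 h at 37° C was quantified by ELISA after plate-bound αCD3 (1 μg/ml) and αCD28 (5 μg/ml) stimulation, or PMA (0.5 ng/ml) with ionomycin (0.1 μM) as counter-screen. Cells were IL-2-starved primary human T cells, expanded from volunteer PBMC and exposed to compound for 1 hr beforehand.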

SMILES | IC50 [nM]
CN1C(C)(C)CC(Nc2nc(Nc3ccc(OC4CCN(CC(F)(F)F)CC4)c(OC(F)F)c3)ncc2F)CC1(C)C [Compound I-145, N2-(4-(1-(2,2,2-trifluoroethyl)piperidin-4-yloxy)-3-(difluoromethoxy)phenyl)-5-fluoro-N4-(1,2,2,6,6-pentamethylpiperidin-4-yl)pyrimidine-2,4-diamine] | 250 to 500
CC(C)N1CC[C@@H](Oc2ccc(Nc3ncc(F)c(NC4CC(C)(C)NC(C)(C)C4)n3)cc2OC(F)F)C1 [Compound I-146, N2-(4-((R)-1-isopropylpyrrolidin-3-yloxy)-3-(difluoromethoxy)phenyl)-5-fluoro-N4-(2,2,6,6-tetramethylpiperidin-4-yl)pyrimidine-2,4-diamine] | 250 to 500
CC(C)N1CC[C@@H](Oc2ccc(Nc3ncc(F)c(NC4CC(C)(C)N(C)C(C)(C)C4)n3)cc2OC(F)F)C1 [Compound I-147, N2-(4-((R)-1-isopropylpyrrolidin-3-yloxy)-3-(difluoromethoxy)phenyl)-5-fluoro-N4-(1,2,2,6,6-pentamethylpiperidin-4-yl)pyrimidine-2,4-diamine] | < 250
CC(C)N1CC[C@H](Oc2ccc(Nc3ncc(F)c(NC4CC(C)(C)NC(C)(C)C4)n3)cc2OC(F)F)C1 [Compound I-148, N2-(4-((S)-1-isopropylpyrrolidin-3-yloxy)-3-(difluoromethoxy)phenyl)-5-fluoro-N4-(2,2,6,6-tetramethylpiperidin-4-yl)pyrimidine-2,4-diamine] | 250 to 500
CC(C)N1CC[C@H](Oc2ccc(Nc3ncc(F)c(NC4CC(C)(C)N(C)C(C)(C)C4)n3)cc2OC(F)F)C1 [Compound I-149, N2-(4-((S)-1-isopropylpyrrolidin-3-yloxy)-3-(difluoromethoxy)phenyl)-5-fluoro-N4-(1,2,2,6,6-pentamethylpiperidin-4-yl)pyrimidine-2,4-diamine] | < 250
CC(C)N1CCC(Oc2ccc(Nc3ncc(F)c(NC4CC(C)(C)NC(C)(C)C4)n3)cc2C#N)CC1 [Compound I-150, 2-(1-isopropylpiperidin-4-yloxy)-5-(4-(2,2,6,6-tetramethylpiperidin-4-ylamino)-5-fluoropyrimidin-2-ylamino)benzonitrile] | < 250
CC(C)N1CCC(Oc2ccc(Nc3ncc(F)c(NC4CC(C)(C)N(C)C(C)(C)C4)n3)cc2C#N)CC1 [Compound I-151, 2-(1-isopropylpiperidin-4-yloxy)-5-(4-(1,2,2,6,6-pentamethylpiperidin-4-ylamino)-5-fluoropyrimidin-2-ylamino)benzonitrile] | 500 to 1000
CN1C(C)(C)CC(Nc2nc(Nc3ccc4c(c3)OCC(C(=O)N3CCCCC3)O4)ncc2F)CC1(C)C (centres unmarked) [II-1, (6-(4-(1,2,2,6,6-pentamethylpiperidin-4-ylamino)-5-fluoropyrimidin-2-ylamino)-2,3-dihydrobenzo[b][1,4]dioxin-2-yl)(piperidin-1-yl)methanone] | > 1000
CN1C(C)(C)CC(Nc2nc(Nc3ccc4c(c3)OCC(C(=O)N3CCOCC3)O4)ncc2F)CC1(C)C (centres unmarked) [II-2, (6-(4-(1,2,2,6,6-pentamethylpiperidin-4-ylamino)-5-fluoropyrimidin-2-ylamino)-2,3-dihydrobenzo[b][1,4]dioxin-2-yl)(morpholino)methanone] | > 1000
CC1(C)CC(Nc2nc(Nc3ccc4c(c3)OCC(C(=O)N3CCCCC3)O4)ncc2F)CC(C)(C)N1 (centres unmarked) [II-3, (6-(4-(2,2,6,6-tetramethylpiperidin-4-ylamino)-5-fluoropyrimidin-2-ylamino)-2,3-dihydrobenzo[b][1,4]dioxin-2-yl)(piperidin-1-yl)methanone] | > 1000
CC1(C)CC(Nc2nc(Nc3ccc4c(c3)OCC(C(=O)N3CCOCC3)O4)ncc2F)CC(C)(C)N1 (centres unmarked) [II-4, (6-(4-(2,2,6,6-tetramethylpiperidin-4-ylamino)-5-fluoropyrimidin-2-ylamino)-2,3-dihydrobenzo[b][1,4]dioxin-2-yl)(morpholino)methanone] | > 1000
CN1C(C)(C)CC(Nc2nc(Nc3ccc4c(c3)OCC(CN3CCCCC3)O4)ncc2F)CC1(C)C (centres unmarked) [II-5, 5-fluoro-N2-(2,3-dihydro-2-((piperidin-1-yl)methyl)benzo[b][1,4]dioxin-6-yl)-N4-(1,2,2,6,6-pentamethylpiperidin-4-yl)pyrimidine-2,4-diamine] | > 1000
CN1C(C)(C)CC(Nc2nc(Nc3ccc4c(c3)OCC(CN3CCOCC3)O4)ncc2F)CC1(C)C (centres unmarked) [II-6, 5-fluoro-N2-(2,3-dihydro-2-(morpholinomethyl)benzo[b][1,4]dioxin-6-yl)-N4-(1,2,2,6,6-pentamethylpiperidin-4-yl)pyrimidine-2,4-diamine] | > 1000
CC1(C)CC(Nc2nc(Nc3ccc4c(c3)OCC(CN3CCCCC3)O4)ncc2F)CC(C)(C)N1 (centres unmarked) [II-7, 5-fluoro-N2-(2,3-dihydro-2-((piperidin-1-yl)methyl)benzo[b][1,4]dioxin-6-yl)-N4-(2,2,6,6-tetramethylpiperidin-4-yl)pyrimidine-2,4-diamine] | > 1000
CC1(C)CC(Nc2nc(Nc3ccc4c(c3)OCC(CN3CCOCC3)O4)ncc2F)CC(C)(C)N1 (centres unmarked) [II-8, 5-fluoro-N2-(2,3-dihydro-2-(morpholinomethyl)benzo[b][1,4]dioxin-6-yl)-N4-(2,2,6,6-tetramethylpiperidin-4-yl)pyrimidine-2,4-diamine] | > 1000
CC1(C)CC(Nc2nc(Nc3ccc4c(c3)OC(C)(C)C(=O)N4CCF)ncc2F)CC(C)(C)N1 [II-9, N2-[2,2-Dimethyl-4-(2-fluoroethyl)-1,4-benzoxazin-3-one-7-yl]-5-fluoro-N4-(2,2,6,6-tetramethylpiperidin-4-yl)-2,4-pyrimidinediamine] | < 250

Next, values leading:

IC50 [nM] | SMILES
250 to 500 | Cc1nnnn1-c1cc(Nc2ncc(F)c(NC3CC(C)(C)N(C)C(C)(C)C3)n2)ccc1OC1CCN(C(C)C)CC1 [III-1, 5-fluoro-N2-(4-(1-isopropylpiperidin-4-yloxy)-3-(5-methyl-1H-tetrazol-1-yl)phenyl)-N4-(1,2,2,6,6-pentamethylpiperidin-4-yl)pyrimidine-2,4-diamine]
> 1000 | Cc1nnnn1-c1cc(Nc2ncc(F)c(NC3CC(C)(C)NC(C)(C)C3)n2)ccc1OC1CCN(C(C)C)CC1 [III-2, 5-fluoro-N2-(4-(1-isopropylpiperidin-4-yloxy)-3-(5-methyl-1H-tetrazol-1-yl)phenyl)-N4-(2,2,6,6-tetramethylpiperidin-4-yl)pyrimidine-2,4-diamine]
> 1000 | CC(C)N1CCC(Oc2ccc(Nc3ncc(F)c(NC4CC(C)(C)N(CC(F)(F)F)C(C)(C)C4)n3)cc2OC(F)F)CC1 [III-3, N2-(3-(Difluoromethoxy)-4-(1-isopropylpiperidin-4-yloxy)phenyl)-5-fluoro-N4-(2,2,6,6-tetramethyl-1-(2,2,2-trifluoroethyl)piperidin-4-yl)pyrimidine-2,4-diamine]
> 1000 | CC(=O)N1C(C)(C)CC(Nc2nc(Nc3ccc(OC4CCN(C(C)C)CC4)c(OC(F)F)c3)ncc2F)CC1(C)C [III-4, 1-(4-(2-(3-(Difluoromethoxy)-4-(1-isopropylpiperidin-4-yloxy)phenylamino)-5-fluoropyrimidin-4-ylamino)-2,2,6,6-tetramethylpiperidin-1-yl)ethanone]
250 to 500 | CC1CC(Nc2nc(Nc3cccc(-n4cnnn4)c3)ncc2F)CC(C)N1C1CC1 (centres unmarked) [III-5, N^2-(3-(1H-tetrazol-1-yl)phenyl)-N4-(1-cyclopropyl-2,6-dimethylpiperidin-4-yl)-5-fluoropyrimidine-2,4-diamine]
250 to 500 | Cc1ccc(Nc2ncc(F)c(NC3CC(C)N(C4CC4)C(C)C3)n2)cc1-n1cnnn1 (centres unmarked) [III-6, N^4-(1-cyclopropyl-2,6-dimethylpiperidin-4-yl)-5-fluoro-N2-(4-methyl-3-(1H-tetrazol-1-yl)phenyl)pyrimidine-2,4-diamine]
< 250 | COc1cc(Nc2ncc(F)c(NC3CC(C)N(C4CC4)C(C)C3)n2)cc(-n2cnnn2)c1 (centres unmarked) [III-7, N^4-(1-cyclopropyl-2,6-dimethylpiperidin-4-yl)-5-fluoro-N2-(3-methoxy-5-(1H-tetrazol-1-yl)phenyl)pyrimidine-2,4-diamine]
< 250 | Cc1nnnn1-c1cccc(Nc2ncc(F)c(NC3CC(C)N(C4CC4)C(C)C3)n2)c1 (centres unmarked) [III-8, N^4-(1-cyclopropyl-2,6-dimethylpiperidin-4-yl)-5-fluoro-N2-(3-(5-methyl-1H-tetrazol-1-yl)phenyl)pyrimidine-2,4-diamine]
250 to 500 | CC1CC(Nc2nc(Nc3cccc(-n4nnnc4SCC(F)(F)F)c3)ncc2F)CC(C)N1C1CC1 (centres unmarked) [III-9, N^4-(1-cyclopropyl-2,6-dimethylpiperidin-4-yl)-5-fluoro-N2-(3-(5-(2,2,2-trifluoroethylthio)-1H-tetrazol-1-yl)phenyl)pyrimidine-2,4-diamine]
250 to 500 | CSc1nnnn1-c1cccc(Nc2ncc(F)c(NC3CC(C)N(C4CC4)C(C)C3)n2)c1 (centres unmarked) [III-10, N^4-(1-cyclopropyl-2,6-dimethylpiperidin-4-yl)-5-fluoro-N2-(3-(5-(methylthio)-1H-tetrazol-1-yl)phenyl)pyrimidine-2,4-diamine]
250 to 500 | CC1CC(Nc2nc(Nc3ccc(F)c(-n4cnnn4)c3)ncc2F)CC(C)N1C1CC1 (centres unmarked) [III-11, N^4-(1-cyclopropyl-2,6-dimethylpiperidin-4-yl)-5-fluoro-N^2-(4-fluoro-3-(1H-tetrazol-1-yl)phenyl)pyrimidine-2,4-diamine]
> 1000 | CC(=O)N1CCC(Oc2ccc(Nc3ncc(F)c(NC4CC(C)(C)N(C)C(C)(C)C4)n3)cc2F)CC1 [III-12, 1-(4-(2-fluoro-4-(5-fluoro-4-(1,2,2,6,6-pentamethylpiperidin-4-ylamino)pyrimidin-2-ylamino)phenoxy)piperidin-1-yl)ethanone]

Same assay, conditions: human primary T cells stimulated with anti-CD3 + anti-CD28, 24 hours

SMILES | IC50 [nM]
CC1(C)CC(Nc2nc(Nc3ccc4c(c3)OCCO4)ncc2F)CC(C)(C)N1 [II-10, N2-(3,4-Ethylenedioxy)phenyl-5-fluoro-N4-(2,2,6,6-tetramethylpiperidin-4-yl)-2,4-pyrimidinediamine] | > 1000
